Data reported in the NIST ThermoML archive (doi:10.1021/acs.jced.5b00752).
Values joined by “and” are separate entries in the source; they are usually repeats but may differ in a detail not shown here. Equal values may be shown once. Numbers after ± are expanded uncertainties.

Details: Closed cell (Static) method

[CH]1C=CC=C1.[CH]1C=CC=C1.[Fe] [ferrocene]
Details	vapor or sublimation pressure
312.2 K, Crystal	0.00369 ± 0.0005 kPa
312.21 K, Crystal	0.00359 ± 0.00051 kPa
322.21 K, Crystal	0.009 ± 0.0004 kPa and 0.00911 ± 0.00041 kPa
332.2 K, Crystal	0.02078 ± 0.00063 kPa
332.21 K, Crystal	0.02086 ± 0.00064 kPa and 0.02071 ± 0.00063 kPa
342.18 K, Crystal	0.04497 ± 0.001 kPa and 0.04517 ± 0.001 kPa
352.17 K, Crystal	0.0934 ± 0.0018 kPa [middle of 4 runs]
352.18 K, Crystal	0.09249 ± 0.0017 kPa and 0.09264 ± 0.0018 kPa and 0.09328 ± 0.0018 kPa
352.19 K, Crystal	0.0936 ± 0.0018 kPa
362.17 K, Crystal	0.1851 ± 0.0025 kPa and 0.185 ± 0.0024 kPa
362.18 K, Crystal	0.1854 ± 0.0025 kPa
372.2 K, Crystal	0.3543 ± 0.0038 kPa
382.19 K, Crystal	0.6508 ± 0.0061 kPa
392.2 K, Crystal	1.158 ± 0.01 kPa
402.26 K, Crystal	2.001 ± 0.011 kPa
402.31 K, Crystal	2.008 ± 0.011 kPa
412.24 K, Crystal	3.346 ± 0.013 kPa
412.32 K, Crystal	3.361 ± 0.013 kPa
422.29 K, Crystal	5.47 ± 0.017 kPa
422.4 K, Crystal	5.502 ± 0.017 kPa
432.42 K, Crystal	8.756 ± 0.023 kPa
442.26 K, Crystal	13.53 ± 0.03 kPa
452.08 K, Liquid	19.48 ± 0.31 kPa

CC[N-]C.CC[N-]C.CC[N-]C.CC[N-]C.[Hf+4] [tetrakis(ethylmethylamino)hafnium]
Crystal
Details	vapor or sublimation pressure [kPa]
312.19 K	0.00296 ± 0.00021
322.2 K	0.00715 ± 0.0003
332.2 K	0.01587 ± 0.00056
342.18 K	0.03287 ± 0.00082
352.19 K	0.0644 ± 0.0013
362.19 K	0.121 ± 0.0026
372.21 K	0.216 ± 0.005
382.21 K	0.37 ± 0.011
392.24 K	0.591 ± 0.028

c1ccc2ccccc2c1 [naphthalene]
Details	vapor or sublimation pressure
312.2 K, Crystal	0.04084 ± 0.0011 kPa and 0.04083 ± 0.0011 kPa
317.21 K, Crystal	0.06326 ± 0.0015 kPa
322.21 K, Crystal	0.09622 ± 0.002 kPa
327.21 K, Crystal	0.1447 ± 0.0025 kPa
332.21 K, Crystal	0.2153 ± 0.0032 kPa
337.21 K, Crystal	0.315 ± 0.0043 kPa and 0.3154 ± 0.0043 kPa
342.19 K, Crystal	0.4556 ± 0.0058 kPa
347.19 K, Crystal	0.651 ± 0.0079 kPa
352.19 K, Crystal	0.9213 ± 0.011 kPa
357.19 K, Liquid	1.2 ± 0.014 kPa
362.2 K, Liquid	1.521 ± 0.016 kPa
367.21 K, Liquid	1.915 ± 0.019 kPa and 1.914 ± 0.019 kPa
372.22 K, Liquid	2.393 ± 0.022 kPa
377.22 K, Liquid	2.966 ± 0.027 kPa and 2.967 ± 0.027 kPa
382.22 K, Liquid	3.657 ± 0.033 kPa
387.23 K, Liquid	4.475 ± 0.038 kPa and 4.476 ± 0.038 kPa
392.24 K, Liquid	5.45 ± 0.046 kPa
397.27 K, Liquid	6.593 ± 0.055 kPa and 6.596 ± 0.056 kPa
402.37 K, Liquid	7.962 ± 0.067 kPa
407.32 K, Liquid	9.502 ± 0.079 kPa
412.4 K, Liquid	11.33 ± 0.094 kPa
422.55 K, Liquid	15.88 ± 0.13 kPa
432.58 K, Liquid	21.75 ± 0.18 kPa
442.46 K, Liquid	29.18 ± 0.24 kPa
452.37 K, Liquid	38.57 ± 0.32 kPa

CCOC(=O)c1ccccc1C(=O)OCC [diethyl phthalate]
Liquid
Details	vapor or sublimation pressure
312.21 K	0.00032 ± 0.0002 kPa and 0.00035 ± 0.0002 kPa
322.21 K	0.00105 ± 0.00023 kPa and 0.00103 ± 0.00023 kPa
332.21 K	0.00269 ± 0.00031 kPa
342.19 K	0.00623 ± 0.00048 kPa
352.18 K	0.01358 ± 0.00086 kPa
352.2 K	0.01352 ± 0.00085 kPa
362.2 K	0.02775 ± 0.0014 kPa
372.19 K	0.05429 ± 0.0025 kPa
372.2 K	0.05407 ± 0.0025 kPa
372.22 K	0.05424 ± 0.0025 kPa
382.23 K	0.1008 ± 0.0046 kPa
392.24 K	0.1821 ± 0.0076 kPa
402.37 K	0.3169 ± 0.013 kPa
412.38 K	0.5303 ± 0.022 kPa
422.49 K	0.8621 ± 0.035 kPa
442.28 K	2.082 ± 0.084 kPa
452.12 K	3.099 ± 0.12 kPa
